Reference: BindingDB's records for doi:10.1016/j.chembiol.2015.10.013 (Pfizer, 2015)

How the values were obtained:
CREB-binding protein [1] = biological target: T1, CREB-binding protein (Homo sapiens, UniProt Q92793); assay: CBP Fluorescence Resonance Energy Transfer (FRET)
[2] = biological target: T2, Bromodomain-containing protein 4 (Homo sapiens, UniProt O60885); assay: BRD4 Fluorescence Polarization (FP)
[3] = biological target: T2, Bromodomain-containing protein 4; assay: ITC
CREB-binding protein [4] = biological target: T1, CREB-binding protein; assay: ITC

T1 sequence (Q92793 whole entry): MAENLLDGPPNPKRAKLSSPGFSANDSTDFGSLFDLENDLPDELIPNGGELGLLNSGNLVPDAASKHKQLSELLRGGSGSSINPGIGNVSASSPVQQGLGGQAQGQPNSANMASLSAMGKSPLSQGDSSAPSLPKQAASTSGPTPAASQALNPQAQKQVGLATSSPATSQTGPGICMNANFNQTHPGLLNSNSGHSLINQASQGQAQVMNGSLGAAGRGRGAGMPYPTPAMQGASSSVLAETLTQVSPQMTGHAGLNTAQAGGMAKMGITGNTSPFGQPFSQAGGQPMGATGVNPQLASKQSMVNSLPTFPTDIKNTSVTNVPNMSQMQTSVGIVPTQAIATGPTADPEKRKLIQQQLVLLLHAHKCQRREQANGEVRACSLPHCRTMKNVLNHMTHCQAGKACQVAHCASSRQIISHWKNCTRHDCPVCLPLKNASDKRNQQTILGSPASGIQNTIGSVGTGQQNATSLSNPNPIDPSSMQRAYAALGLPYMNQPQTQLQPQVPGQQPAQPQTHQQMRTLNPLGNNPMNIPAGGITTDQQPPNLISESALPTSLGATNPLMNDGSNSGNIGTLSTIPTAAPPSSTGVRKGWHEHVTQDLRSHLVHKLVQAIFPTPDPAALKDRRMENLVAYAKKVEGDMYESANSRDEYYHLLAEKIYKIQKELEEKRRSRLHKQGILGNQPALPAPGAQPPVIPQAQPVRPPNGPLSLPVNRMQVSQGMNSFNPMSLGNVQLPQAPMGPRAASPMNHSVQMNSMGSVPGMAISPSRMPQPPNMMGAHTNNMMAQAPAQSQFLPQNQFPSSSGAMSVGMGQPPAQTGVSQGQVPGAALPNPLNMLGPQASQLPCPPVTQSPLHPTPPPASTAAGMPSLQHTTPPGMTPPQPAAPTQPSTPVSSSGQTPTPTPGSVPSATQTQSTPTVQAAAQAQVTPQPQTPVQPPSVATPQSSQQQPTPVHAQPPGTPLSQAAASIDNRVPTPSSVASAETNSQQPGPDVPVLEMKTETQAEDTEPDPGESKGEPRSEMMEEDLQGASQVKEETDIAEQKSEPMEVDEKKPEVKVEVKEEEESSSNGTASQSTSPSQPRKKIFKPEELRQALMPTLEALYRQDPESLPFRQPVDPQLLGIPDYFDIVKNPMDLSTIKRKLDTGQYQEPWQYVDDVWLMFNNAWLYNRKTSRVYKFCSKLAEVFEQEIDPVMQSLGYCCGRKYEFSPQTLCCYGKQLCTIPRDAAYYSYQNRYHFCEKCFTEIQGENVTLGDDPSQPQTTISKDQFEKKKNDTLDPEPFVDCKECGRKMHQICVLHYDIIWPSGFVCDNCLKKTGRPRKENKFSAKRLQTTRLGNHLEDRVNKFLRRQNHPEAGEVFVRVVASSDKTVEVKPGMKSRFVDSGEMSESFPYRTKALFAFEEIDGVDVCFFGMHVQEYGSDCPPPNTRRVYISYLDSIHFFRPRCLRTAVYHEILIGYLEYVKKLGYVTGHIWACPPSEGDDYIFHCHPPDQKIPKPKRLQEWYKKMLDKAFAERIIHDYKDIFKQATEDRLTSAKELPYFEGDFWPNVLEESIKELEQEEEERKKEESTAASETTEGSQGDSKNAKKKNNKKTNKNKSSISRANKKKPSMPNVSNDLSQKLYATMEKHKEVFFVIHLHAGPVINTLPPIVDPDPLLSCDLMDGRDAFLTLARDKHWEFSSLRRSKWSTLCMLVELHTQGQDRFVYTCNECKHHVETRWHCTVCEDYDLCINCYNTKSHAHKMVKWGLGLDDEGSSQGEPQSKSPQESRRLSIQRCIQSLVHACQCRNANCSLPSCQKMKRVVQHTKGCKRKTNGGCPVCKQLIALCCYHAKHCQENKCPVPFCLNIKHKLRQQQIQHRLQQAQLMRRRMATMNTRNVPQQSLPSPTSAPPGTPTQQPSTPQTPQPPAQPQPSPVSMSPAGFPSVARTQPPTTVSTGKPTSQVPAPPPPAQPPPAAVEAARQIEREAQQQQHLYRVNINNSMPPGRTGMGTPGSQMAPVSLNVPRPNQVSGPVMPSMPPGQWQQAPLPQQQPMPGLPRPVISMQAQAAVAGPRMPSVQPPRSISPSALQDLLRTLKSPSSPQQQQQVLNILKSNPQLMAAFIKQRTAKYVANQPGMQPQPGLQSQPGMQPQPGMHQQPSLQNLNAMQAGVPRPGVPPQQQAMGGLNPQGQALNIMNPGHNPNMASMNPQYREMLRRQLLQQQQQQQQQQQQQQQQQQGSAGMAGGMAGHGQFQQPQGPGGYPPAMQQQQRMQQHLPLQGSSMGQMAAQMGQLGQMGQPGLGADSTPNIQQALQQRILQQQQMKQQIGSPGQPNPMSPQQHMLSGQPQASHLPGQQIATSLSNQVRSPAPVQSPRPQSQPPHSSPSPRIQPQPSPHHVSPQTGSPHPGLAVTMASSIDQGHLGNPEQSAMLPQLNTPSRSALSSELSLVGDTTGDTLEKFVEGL

COc1ccc(CCc2nc3c(C)c(-c4c(C)noc4C)c(C)cc3n2CCN2CCOCC2)cc1 [ISOX-INACT]
IC50 (CREB-binding protein [1]): 10.6 µM | IC50 [2]: > 120 µM

CCCOc1ccc(CCc2nc3cc(-c4c(C)noc4C)ccc3n2CCN2CCOCC2)cc1 [PF-CBP1]
Kd [3]: > 20 µM | Kd (CREB-binding protein [4]): 190 nM | IC50 (CREB-binding protein [1]): 0.13 µM | IC50 [2]: 18.1 µM
